tested on: HLA-DR2; settings: pH 6
Experimental: In order to compare the binding of various MBP peptides to DR2, purified DR2 at a concentration of 20 μg/ml was incubated with 50-fold molar excess of Bt-MBP peptides for 72 hours at varying pH, ranging from pH 5-10 binding buffer at 37° C. […] Monoclonal antibody against HLA-DR2 at a concentration of 20 μg/ml and BSA-biotin (with 0.014-1.80 pmoles (0.117-15 ng), were coated in 96-well microtiter plates (Nunc poly-Sorb, Baxter) overnight at 4° C. Plates were blocked with 1% fish gelatin. Prepared HLA-DR2-biotin peptide complexes were applied to the wells in duplicates ranging from 12.5 ng-200 ng (0.21-3.32 pmoles) in appropriate dilution buffers and incubated for 2 hours at room temperature. The wells were washed three times with PBS containing 0.01% Tween-20 to remove unbound peptide. Bound biotinylated peptides were detected colorimetrically using alkaline phosphatase conjugated streptavidin and p-nitrophenyl phosphate (disodium) in 0.1M diethnolamine as a substrate. Wells were read at 405 nm in microliter plate reader (Molecular Devices). The percent of DR2 with bound peptide was calculated using standard BSA-biotin (eight biotin molecules per BSA). Purified HLA-DR2 used in this study contains a mixture of DRB5*0101 and DRB1*1501 beta chains.
In the first experiment, the binding of MBP(84-102) peptide to purified DR2 was compared with MBP(83-102)Y83 peptide at various pH.

Going from CC[C@H](C)[C@H](NC(=O)[C@H](CC(N)=O)NC(=O)[C@H](CCCCN)NC(=O)[C@H](Cc1ccccc1)NC(=O)[C@H](Cc1ccccc1)NC(=O)[C@H](Cc1c[nH]cn1)NC(=O)[C@@H](NC(=O)[C@@H](NC(=O)[C@@H]1CCCN1C(=O)[C@H](CC(N)=O)NC(=O)[C@H](CCC(=O)O)NC(=O)[C@H](CC(=O)O)NC(=O)[C@H](C)NC(=O)CCCC[C@@H]1SC[C@@H]2NC(=O)N[C@@H]21)C(C)C)C(C)C)C(=O)N[C@H](C(=O)N[C@H](C(=O)N1CCC[C@H]1C(=O)N[C@@H](CCCNC(=N)N)C(=O)N[C@H](C(=O)N1CCC[C@H]1C(=O)N1CCC[C@H]1C(N)=O)[C@@H](C)O)[C@@H](C)O)C(C)C [MBP(83-102)A83, Bt-ADENPVVHFF KNIVTPRTPP-NH2] to CC[C@H](C)[C@H](NC(=O)[C@H](CC(N)=O)NC(=O)[C@H](CCCCN)NC(=O)[C@H](Cc1ccccc1)NC(=O)[C@H](Cc1ccccc1)NC(=O)[C@H](Cc1c[nH]cn1)NC(=O)[C@@H](NC(=O)[C@@H](NC(=O)[C@@H]1CCCN1C(=O)[C@H](CC(N)=O)NC(=O)[C@H](CCC(=O)O)NC(=O)[C@H](CC(=O)O)NC(=O)CCCC[C@@H]1SC[C@@H]2NC(=O)N[C@@H]21)C(C)C)C(C)C)C(=O)N[C@H](C(=O)N[C@H](C(=O)N1CCC[C@H]1C(=O)N[C@@H](CCCNC(=N)N)C(=O)N[C@H](C(=O)N1CCC[C@H]1C(=O)N1CCC[C@H]1C(N)=O)[C@@H](C)O)[C@@H](C)O)C(C)C [MBP(84-102), Bt-DENPVVHFFK NIVTPRTPP-NH2, reference compound], the “percent of DR2 occupied with bound peptide” value (shortened to “percent … with bound peptide”) falls from 100% to 45%.

Going from CC[C@H](C)[C@H](NC(=O)[C@H](CC(N)=O)NC(=O)[C@H](CCCCN)NC(=O)[C@H](Cc1ccccc1)NC(=O)[C@H](Cc1ccccc1)NC(=O)[C@H](Cc1c[nH]cn1)NC(=O)[C@@H](NC(=O)[C@@H](NC(=O)[C@@H]1CCCN1C(=O)[C@H](CC(N)=O)NC(=O)[C@H](CCC(=O)O)NC(=O)[C@H](CC(=O)O)NC(=O)[C@H](CC(=O)O)NC(=O)CCCC[C@@H]1SC[C@@H]2NC(=O)N[C@@H]21)C(C)C)C(C)C)C(=O)N[C@H](C(=O)N[C@H](C(=O)N1CCC[C@H]1C(=O)N[C@@H](CCCNC(=N)N)C(=O)N[C@H](C(=O)N1CCC[C@H]1C(=O)N1CCC[C@H]1C(N)=O)[C@@H](C)O)[C@@H](C)O)C(C)C [MBP(83-102)D83, Bt-DDENPVVHFF KNIVTPRTPP-NH2] to CC[C@H](C)[C@H](NC(=O)[C@H](CC(N)=O)NC(=O)[C@H](CCCCN)NC(=O)[C@H](Cc1ccccc1)NC(=O)[C@H](Cc1ccccc1)NC(=O)[C@H](Cc1c[nH]cn1)NC(=O)[C@@H](NC(=O)[C@@H](NC(=O)[C@@H]1CCCN1C(=O)[C@H](CC(N)=O)NC(=O)[C@H](CCC(=O)O)NC(=O)[C@H](CC(=O)O)NC(=O)[C@H](CCC(N)=O)NC(=O)CCCC[C@@H]1SC[C@@H]2NC(=O)N[C@@H]21)C(C)C)C(C)C)C(=O)N[C@H](C(=O)N[C@H](C(=O)N1CCC[C@H]1C(=O)N[C@@H](CCCNC(=N)N)C(=O)N[C@H](C(=O)N1CCC[C@H]1C(=O)N1CCC[C@H]1C(N)=O)[C@@H](C)O)[C@@H](C)O)C(C)C [MBP(83-102)Q83, Bt-QDENPVVHFF KNIVTPRTPP-NH2], the “percent … with bound peptide” value falls from 55% to 40%.

Compared with CC[C@H](C)[C@H](NC(=O)[C@H](CC(N)=O)NC(=O)[C@H](CCCCN)NC(=O)[C@H](Cc1ccccc1)NC(=O)[C@H](Cc1ccccc1)NC(=O)[C@H](Cc1c[nH]cn1)NC(=O)[C@@H](NC(=O)[C@@H](NC(=O)[C@@H]1CCCN1C(=O)[C@H](CC(N)=O)NC(=O)[C@H](CCC(=O)O)NC(=O)[C@H](CC(=O)O)NC(=O)[C@H](Cc1ccccc1)NC(=O)CCCC[C@@H]1SC[C@@H]2NC(=O)N[C@@H]21)C(C)C)C(C)C)C(=O)N[C@H](C(=O)N[C@H](C(=O)N1CCC[C@H]1C(=O)N[C@@H](CCCNC(=N)N)C(=O)N[C@H](C(=O)N1CCC[C@H]1C(=O)N1CCC[C@H]1C(N)=O)[C@@H](C)O)[C@@H](C)O)C(C)C [MBP(83-102)F83, Bt-FDENPVVHFF KNIVTPRTPP-NH2], CC[C@H](C)[C@H](NC(=O)[C@H](CC(N)=O)NC(=O)[C@H](CCCCN)NC(=O)[C@H](Cc1ccccc1)NC(=O)[C@H](Cc1ccccc1)NC(=O)[C@H](Cc1c[nH]cn1)NC(=O)[C@@H](NC(=O)[C@@H](NC(=O)[C@@H]1CCCN1C(=O)[C@H](CC(N)=O)NC(=O)[C@H](CCC(=O)O)NC(=O)[C@H](CC(=O)O)NC(=O)[C@H](CCCCN)NC(=O)CCCC[C@@H]1SC[C@@H]2NC(=O)N[C@@H]21)C(C)C)C(C)C)C(=O)N[C@H](C(=O)N[C@H](C(=O)N1CCC[C@H]1C(=O)N[C@@H](CCCNC(=N)N)C(=O)N[C@H](C(=O)N1CCC[C@H]1C(=O)N1CCC[C@H]1C(N)=O)[C@@H](C)O)[C@@H](C)O)C(C)C [MBP(83-102)K83, Bt-KDENPVVHFF KNIVTPRTPP-NH2] is higher in “percent … with bound peptide” value: 12% for the first, 75% for the second.

Reference: patent US5824315A, “Binding affinity of antigenic peptides for MHC molecules” (Anergen, Inc., priority 1996, dated 1998)
